± gives the expanded uncertainty stated by the source.
Assay: activity coefficient (dimensionless); of the first substance listed, at infinite dilution; xn = mol fraction of the nth substance listed
Details: Liquid, x1 = 0

Row | Structure (SMILES) | activity coefficient (303.15 K, Chromatography) | activity coefficient (313.15 K, Chromatography) | activity coefficient (323.15 K, Chromatography) | activity coefficient (333.15 K, Chromatography) | activity coefficient (303.15 K, dilutor) | activity coefficient (313.15 K, dilutor) | activity coefficient (323.15 K, dilutor) | activity coefficient (333.15 K, dilutor)
1 | Cc1ccccc1C [1,2-dimethylbenzene] + CCCCCCCCn1cc[n+](C)c1.O=S(=O)([N-]S(=O)(=O)C(F)(F)F)C(F)(F)F | 0.98 ± 0.03 | 1.03 ± 0.03 | 1.03 ± 0.03 | 1.05 ± 0.03 | – | – | – | –
2 | Cc1cccc(C)c1 [1,3-dimethylbenzene] + CCCCCCCCn1cc[n+](C)c1.O=S(=O)([N-]S(=O)(=O)C(F)(F)F)C(F)(F)F | 1.13 ± 0.03 | 1.15 ± 0.04 | 1.17 ± 0.04 | 1.19 ± 0.04 | – | – | – | –
3 | Cc1cccc(C)c1 [1,3-dimethylbenzene] + CCCCCC[n+]1ccn(C)c1.O=S(=O)([N-]S(=O)(=O)C(F)(F)F)C(F)(F)F | 1.4 ± 0.05 | 1.41 ± 0.05 | 1.46 ± 0.06 | 1.5 ± 0.06 | – | – | – | –
4 | Cc1ccc(C)cc1 [1,4-dimethylbenzene] + CCCCCCCCn1cc[n+](C)c1.O=S(=O)([N-]S(=O)(=O)C(F)(F)F)C(F)(F)F | 1.11 ± 0.03 | 1.13 ± 0.03 | 1.16 ± 0.04 | 1.16 ± 0.04 | – | – | – | –
5 | Cc1ccc(C)cc1 [1,4-dimethylbenzene] + CCCCCC[n+]1ccn(C)c1.O=S(=O)([N-]S(=O)(=O)C(F)(F)F)C(F)(F)F | 1.42 ± 0.05 | 1.42 ± 0.05 | 1.48 ± 0.06 | 1.51 ± 0.06 | – | – | – | –
6 | C=CCCCCC [1-heptene] + CCCCCCCCn1cc[n+](C)c1.O=S(=O)([N-]S(=O)(=O)C(F)(F)F)C(F)(F)F | 4.29 ± 0.2 | 4.23 ± 0.19 | 4.13 ± 0.19 | 4.13 ± 0.19 | 4.33 ± 0.22 | 4.26 ± 0.21 | 4.2 ± 0.21 | 4.15 ± 0.21
7 | C=CCCCCC [1-heptene] + CCCCCC[n+]1ccn(C)c1.O=S(=O)([N-]S(=O)(=O)C(F)(F)F)C(F)(F)F | 6.46 ± 0.3 | 6.28 ± 0.29 | 6.09 ± 0.28 | 5.96 ± 0.27 | 6.28 ± 0.31 | 6.12 ± 0.31 | 5.96 ± 0.3 | 5.86 ± 0.29
8 | C=CCCCCC [1-heptene] + CCCC[N+]1(C)CCCC1.O=S(=O)([N-]S(=O)(=O)C(F)(F)F)C(F)(F)F | – | – | – | – | 10.4 ± 0.5 | 9.97 ± 0.5 | 9.69 ± 0.48 | 9.37 ± 0.47
9 | C=CCCC [1-pentene] + CCCCCCCCn1cc[n+](C)c1.O=S(=O)([N-]S(=O)(=O)C(F)(F)F)C(F)(F)F | 2.52 ± 0.11 | 2.53 ± 0.11 | 2.46 ± 0.11 | 2.45 ± 0.11 | 2.54 ± 0.13 | 2.53 ± 0.13 | 2.53 ± 0.13 | 2.52 ± 0.13
10 | C=CCCC [1-pentene] + CCCCCC[n+]1ccn(C)c1.O=S(=O)([N-]S(=O)(=O)C(F)(F)F)C(F)(F)F | 3.47 ± 0.16 | 3.4 ± 0.15 | 3.3 ± 0.15 | 3.31 ± 0.15 | 3.36 ± 0.17 | 3.33 ± 0.17 | 3.3 ± 0.17 | 3.23 ± 0.16
11 | C=CCCC [1-pentene] + CCCC[N+]1(C)CCCC1.O=S(=O)([N-]S(=O)(=O)C(F)(F)F)C(F)(F)F | – | – | – | – | 4.95 ± 0.25 | 4.91 ± 0.25 | 4.81 ± 0.24 | 4.8 ± 0.24
12 | CCOC(C)(C)C [2-ethoxy-2-methylpropane] + CCCCCC[n+]1ccn(C)c1.O=S(=O)([N-]S(=O)(=O)C(F)(F)F)C(F)(F)F | 2.69 ± 0.12 | 2.74 ± 0.12 | 2.76 ± 0.13 | 2.82 ± 0.13 | – | – | – | –
13 | CCC(C)(C)OC [2-methoxy-2-methylbutane] + CCCCCC[n+]1ccn(C)c1.O=S(=O)([N-]S(=O)(=O)C(F)(F)F)C(F)(F)F | 1.83 ± 0.08 | 1.9 ± 0.08 | 1.94 ± 0.09 | 2.02 ± 0.09 | – | – | – | –
14 | CC(C)=O [acetone] + CCCCCC[n+]1ccn(C)c1.O=S(=O)([N-]S(=O)(=O)C(F)(F)F)C(F)(F)F | – | – | – | – | 0.31 ± 0.02 | 0.32 ± 0.02 | 0.34 ± 0.02 | 0.34 ± 0.02
15 | c1ccccc1 [benzene] + CCCCCCCCn1cc[n+](C)c1.O=S(=O)([N-]S(=O)(=O)C(F)(F)F)C(F)(F)F | 0.63 ± 0.03 | 0.65 ± 0.03 | 0.65 ± 0.03 | 0.66 ± 0.03 | – | – | – | –
16 | c1ccccc1 [benzene] + CCCCCC[n+]1ccn(C)c1.O=S(=O)([N-]S(=O)(=O)C(F)(F)F)C(F)(F)F | 0.75 ± 0.03 | 0.76 ± 0.03 | 0.78 ± 0.03 | 0.79 ± 0.03 | – | – | – | –
17 | c1ccccc1 [benzene] + CCCC[N+]1(C)CCCC1.O=S(=O)([N-]S(=O)(=O)C(F)(F)F)C(F)(F)F | – | – | – | – | 0.84 ± 0.04 | 0.86 ± 0.04 | 0.88 ± 0.04 | 0.89 ± 0.04

Row | Structure (SMILES) | activity coefficient (303.15 K, Chromatography) | activity coefficient (313.15 K, Chromatography) | activity coefficient (323.15 K, Chromatography) | activity coefficient (333.15 K, Chromatography) | activity coefficient (303.15 K, dilutor) | activity coefficient (313.15 K, dilutor) | activity coefficient (323.15 K, dilutor) | activity coefficient (333.15 K, dilutor)
18 | CCC(C)=O [butanone] + CCCCCC[n+]1ccn(C)c1.O=S(=O)([N-]S(=O)(=O)C(F)(F)F)C(F)(F)F | 0.41 ± 0.03 | 0.42 ± 0.03 | 0.44 ± 0.03 | 0.44 ± 0.03 | – | – | – | –
19 | CCC(C)=O [butanone] + CCCC[N+]1(C)CCCC1.O=S(=O)([N-]S(=O)(=O)C(F)(F)F)C(F)(F)F | – | – | – | – | 0.52 ± 0.03 | 0.53 ± 0.03 | 0.55 ± 0.03 | 0.56 ± 0.03
20 | C1CCCCC1 [cyclohexane] + CCCCCCCCn1cc[n+](C)c1.O=S(=O)([N-]S(=O)(=O)C(F)(F)F)C(F)(F)F | 3.64 ± 0.17 | 3.52 ± 0.16 | 3.36 ± 0.15 | 3.29 ± 0.15 | 3.67 ± 0.18 | 3.59 ± 0.18 | 3.48 ± 0.17 | 3.39 ± 0.17
21 | C1CCCCC1 [cyclohexane] + CCCCCC[n+]1ccn(C)c1.O=S(=O)([N-]S(=O)(=O)C(F)(F)F)C(F)(F)F | 5.48 ± 0.25 | 5.15 ± 0.24 | 4.9 ± 0.22 | 4.75 ± 0.22 | 5.29 ± 0.26 | 5.01 ± 0.25 | 4.78 ± 0.24 | 4.68 ± 0.23
22 | C1CCCCC1 [cyclohexane] + CCCC[N+]1(C)CCCC1.O=S(=O)([N-]S(=O)(=O)C(F)(F)F)C(F)(F)F | – | – | – | – | 8.75 ± 0.44 | 8.43 ± 0.42 | 7.91 ± 0.4 | 7.42 ± 0.37
23 | C1=CCCCC1 [cyclohexene] + CCCCCCCCn1cc[n+](C)c1.O=S(=O)([N-]S(=O)(=O)C(F)(F)F)C(F)(F)F | 2.41 ± 0.11 | 2.38 ± 0.11 | 2.31 ± 0.1 | 2.29 ± 0.1 | 2.44 ± 0.12 | 2.38 ± 0.12 | 2.33 ± 0.12 | 2.28 ± 0.11
24 | C1=CCCCC1 [cyclohexene] + CCCCCC[n+]1ccn(C)c1.O=S(=O)([N-]S(=O)(=O)C(F)(F)F)C(F)(F)F | 3.42 ± 0.16 | 3.28 ± 0.15 | 3.18 ± 0.14 | 3.14 ± 0.14 | 3.2 ± 0.16 | 3.15 ± 0.16 | 3.07 ± 0.15 | 3.01 ± 0.15
25 | C1CCCC1 [cyclopentane] + CCCCCCCCn1cc[n+](C)c1.O=S(=O)([N-]S(=O)(=O)C(F)(F)F)C(F)(F)F | – | – | – | – | 2.68 ± 0.13 | 2.64 ± 0.13 | 2.59 ± 0.13 | 2.56 ± 0.13
26 | C1CCCC1 [cyclopentane] + CCCCCC[n+]1ccn(C)c1.O=S(=O)([N-]S(=O)(=O)C(F)(F)F)C(F)(F)F | – | – | – | – | 3.64 ± 0.18 | 3.48 ± 0.17 | 3.27 ± 0.16 | 3.26 ± 0.16
27 | C1CCCC1 [cyclopentane] + CCCC[N+]1(C)CCCC1.O=S(=O)([N-]S(=O)(=O)C(F)(F)F)C(F)(F)F | – | – | – | – | 6.14 ± 0.31 | 5.7 ± 0.29 | 5.41 ± 0.27 | 5.12 ± 0.26
28 | C1=CCCC1 [cyclopentene] + CCCCCCCCn1cc[n+](C)c1.O=S(=O)([N-]S(=O)(=O)C(F)(F)F)C(F)(F)F | – | – | – | – | 1.86 ± 0.09 | 1.84 ± 0.09 | 1.81 ± 0.09 | 1.78 ± 0.09
29 | CC(C)OC(C)C [diisopropyl ether] + CCCCCC[n+]1ccn(C)c1.O=S(=O)([N-]S(=O)(=O)C(F)(F)F)C(F)(F)F | 2.76 ± 0.13 | 2.82 ± 0.13 | 2.85 ± 0.13 | 2.92 ± 0.13 | – | – | – | –
30 | CCO [ethanol] + CCCCCCCCn1cc[n+](C)c1.O=S(=O)([N-]S(=O)(=O)C(F)(F)F)C(F)(F)F | 1.46 ± 0.06 | 1.34 ± 0.05 | 1.22 ± 0.04 | 1.12 ± 0.03 | – | – | – | –
31 | CCO [ethanol] + CCCCCC[n+]1ccn(C)c1.O=S(=O)([N-]S(=O)(=O)C(F)(F)F)C(F)(F)F | 1.6 ± 0.06 | 1.47 ± 0.06 | 1.36 ± 0.05 | 1.27 ± 0.04 | – | – | – | –
32 | CCO [ethanol] + CCCC[N+]1(C)CCCC1.O=S(=O)([N-]S(=O)(=O)C(F)(F)F)C(F)(F)F | – | – | – | – | 1.84 ± 0.09 | 1.73 ± 0.09 | 1.63 ± 0.08 | 1.5 ± 0.08
33 | CCCCCCC [heptane] + CCCCCCCCn1cc[n+](C)c1.O=S(=O)([N-]S(=O)(=O)C(F)(F)F)C(F)(F)F | 6.82 ± 0.31 | 6.55 ± 0.3 | 6.38 ± 0.29 | 6.21 ± 0.28 | 7.01 ± 0.35 | 6.81 ± 0.34 | 6.57 ± 0.33 | 6.4 ± 0.32
34 | CCCCCCC [heptane] + CCCCCC[n+]1ccn(C)c1.O=S(=O)([N-]S(=O)(=O)C(F)(F)F)C(F)(F)F | 11.2 ± 0.5 | 10.6 ± 0.5 | 10 ± 0.5 | 9.67 ± 0.44 | 11 ± 0.6 | 10.6 ± 0.5 | 10.1 ± 0.5 | 9.77 ± 0.49

Reference: the NIST ThermoML archive (doi:10.1016/j.jct.2005.04.010)
